Key:
[1] = biological target: BRD4(1,2)^WT transiently expressed in HEK293T cells (Homo sapiens, UniProt O60885); experiment: In-cell labeling of tandem bromodomain; format: cell-based
Protocol: (§1) reaction mix was taken and 8 µL of Lamelli buffer added, and the samples denatured by heating at 95 °C for 10 min. Samples were separated by gel electrophoresis on NuPAGE™ 4–12%, Bis-Tris precast polyacrylamide gels (Thermofisher). Following electrophoresis, gels were stained for 15 min with InstantBlueTM Coomasie® stain (Abcam), destained, and imaged using Bio-rad molecular imager.
(§2) Bio-rad Image Lab 6.1 was used to process the data.
(§3) In-cell target engagement
In-cell labeling by clickable probes
Transfected HEK293T cells at ~90% confluency were incubated for 1 h with a DMSO control (0.5% DMSO final concentration) or a click probe (10 µM, 0.5% DMSO final concentration) diluted in Opti- […]
Cells were then harvested and lysed using the previously described protocol above. The resulting cell lysates were diluted to 2 mg/mL using the previously described protocol above. […]
(§4) Gels were imaged for fluorescence using Bio-rad molecular imager and then stained for 15 min with InstantBlueTM Coomasie® stain (Abcam), destained, and imaged using Bio-rad molecular imager. […]
(§5) Transfected HEK293T cells at ~90% confluency were incubated for 30 min with a DMSO control or varying concentrations of OXFBD04 diluted in Opti-MEM media. […] Cells were then harvested, processed, and analysed using the previously described protocol above. […]

[2] = test system: T1, StrepII-tagged BRD4(1)^L94C or BRD4(1)^WT in HEK293T cells; experiment: Immunoprecipitation of StrepII-tagged bromodomains after in-cell labeling; format: cell-based, human; details: 10 µM probe, 1 h, anti-StrepII pull-down, in-gel fluorescence
T1 construct: the L94C mutation in the first bromodomain of BRD4 [BRD4(1)]; StrepII; expressed in transfected cells; host or cells: HEK293T
Protocol: Compound engagement with BRD4(1)^L94C was further validated by using an immunoprecipitation (IP) assay (Figure S22). Here, transfected HEK293T cells expressing StrepII-tagged BRD4(1)^L94C or StrepII-tagged BRD4(1)^WT were incubated with compound 42 before being lysed. The StrepII-tagged bromodomains were then pulled down using anti-StrepII antibodies, and the samples were separated by SDS-PAGE for analysis. […]
as §1, §2, §3
In-cell labeling by clickable probes […]
as §4, §5

In-cell covalent engagement with BRD4(1,2)^WT [1]: no covalent engagement
Structure (SMILES): C#CCOc1cc(NC(=O)C=C)ccc1N1CCCC1=O [Compound 42]
Engagement of StrepII-tagged BRD4(1)^L94C versus BRD4(1)^WT by immunoprecipitation [2]: selective engagement of BRD4(1)^L94C

— article PMC10660337, “Mutate and Conjugate: A Method to Enable Rapid In-Cell Target Validation” (ACS Chemical Biology, 2023)
